The target of assay [1] is T1, Pancreatic triacylglycerol lipase (Homo sapiens) (UniProt P16233).
T1 sequence (whole entry): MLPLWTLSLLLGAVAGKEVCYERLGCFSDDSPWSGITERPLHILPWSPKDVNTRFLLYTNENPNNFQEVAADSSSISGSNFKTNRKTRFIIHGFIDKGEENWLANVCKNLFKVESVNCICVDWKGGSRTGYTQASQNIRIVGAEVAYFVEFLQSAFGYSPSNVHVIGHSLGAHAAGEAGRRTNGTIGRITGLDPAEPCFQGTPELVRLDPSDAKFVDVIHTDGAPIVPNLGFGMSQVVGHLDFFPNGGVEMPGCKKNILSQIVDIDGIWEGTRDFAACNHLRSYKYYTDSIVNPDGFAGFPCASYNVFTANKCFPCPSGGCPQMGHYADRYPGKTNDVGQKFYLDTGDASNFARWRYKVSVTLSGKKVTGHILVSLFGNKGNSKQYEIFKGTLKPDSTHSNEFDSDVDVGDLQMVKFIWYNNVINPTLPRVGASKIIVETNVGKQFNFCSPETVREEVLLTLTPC
Nature of the assay: Inhibition of pancreatic lipase assessed as effect on oleic acid release from triolein at 1 mg/mL relative to control.

For assay [2], the target named is T1, Pancreatic triacylglycerol lipase (Homo sapiens). Description: Inhibition of pancreatic lipase assessed as effect on oleic acid release from triolein at 0.12 mg/mL relative to control.
Assay [3] has the same target. Description: Inhibition of pancreatic lipase assessed as effect on oleic acid release from triolein relative to control.
The target is the same in assay [4]. Nature of the assay: Inhibition of pancreatic lipase assessed as effect on oleic acid release from triolein at 0.005 mg/mL relative to control.

The source made the active and inactive calls. The rule behind the calls is not given here.

As for `C[C@@H]1O[C@@H](O[C@H]2[C@H](O[C@H]3CC[C@]4(C)[C@H]5CC=C6[C@@H]7CC(C)(C)CC[C@]7(C(=O)O[C@@H]7O[C@H](CO[C@@H]8O[C@H](CO)[C@@H](O)[C@H](O)[C@H]8O)[C@@H](O)[C@H](O)[C@H]7O)CC[C@@]6(C)[C@]5(C)CC[C@H]4C3(C)C)OC[C@@H](O)[C@@H]2O)[C@H](O)[C@H](O[C@@H]2O[C@H](CO)[C@@H](O[C@@H]3O[C@H](CO)[C@@H](O)[C@H](O)[C@H]3O)[C@H](O)[C@H]2O)[C@H]1O`, the result in assay [1] was Active.
On to `C[C@@H]1O[C@@H](O[C@H]2[C@H](O[C@H]3CC[C@]4(C)[C@H]5CC=C6[C@H]7[C@](C(=O)O[C@@H]8O[C@H](CO[C@@H]9O[C@H](CO)[C@@H](O)[C@H](O)[C@H]9O)[C@@H](O)[C@H](O)[C@H]8O)(CC[C@@H](C)[C@@]7(C)O)CC[C@@]6(C)[C@]5(C)CC[C@H]4C3(C)C)OC[C@H](O)[C@@H]2O)[C@H](O)[C@H](O[C@@H]2O[C@H](CO)[C@@H](O)[C@H](O)[C@H]2O)[C@H]1O`, for which the outcome in assay [1] was Active.
As for `C[C@@H]1O[C@@H](O[C@H]2[C@H](O[C@H]3CC[C@]4(C)[C@H]5CC=C6[C@@H]7CC(C)(C)CC[C@]7(C(=O)O)CC[C@@]6(C)[C@]5(C)CC[C@H]4C3(C)C)OC[C@H](O)[C@@H]2O)[C@H](O)[C@H](O[C@@H]2OC[C@@H](O[C@@H]3O[C@H](CO)[C@@H](O)[C@H](O)[C@H]3O)[C@H](O)[C@H]2O)[C@H]1O`, the result in assay [2] and in assay [3] was Active.
On to `CCCCCCCCCCC[C@@H](C[C@@H]1OC(=O)[C@H]1CCCCCC)OC(=O)[C@H](CC(C)C)NC=O`, for which the result in assay [4] was Active.
Turning to `C[C@@H]1O[C@@H](O[C@H]2[C@H](O[C@H]3CC[C@]4(C)[C@H]5CC=C6[C@@H]7CC(C)(C)CC[C@]7(C(=O)O[C@@H]7O[C@H](CO[C@@H]8O[C@H](CO)[C@@H](O)[C@H](O)[C@H]8O)[C@@H](O)[C@H](O)[C@H]7O)CC[C@@]6(C)[C@]5(C)CC[C@H]4C3(C)C)OC[C@@H](O)[C@@H]2O)[C@H](O)[C@H](O[C@@H]2OC[C@@H](O[C@@H]3O[C@H](CO)[C@@H](O[C@@H]4OC[C@@H](O)[C@H](O)[C@H]4O)[C@H](O)[C@H]3O)[C@H](O)[C@H]2O)[C@H]1O`, the outcome in assay [1] was Active.
On the same count and under the same terms, next, `C[C@@H]1O[C@@H](O[C@H]2[C@H](O[C@H]3CC[C@]4(C)[C@H]5CC=C6[C@@H]7CC(C)(C)CC[C@]7(C(=O)O[C@@H]7O[C@H](CO[C@@H]8O[C@H](CO)[C@@H](O)[C@H](O)[C@H]8O)[C@@H](O)[C@H](O)[C@H]7O)CC[C@@]6(C)[C@]5(C)CC[C@H]4C3(C)C)OC[C@@H](O)[C@@H]2O)[C@H](O)[C@H](O[C@@H]2OC[C@@H](O[C@@H]3O[C@H](CO)[C@@H](O)[C@H](O)[C@H]3O)[C@H](O)[C@H]2O)[C@H]1O`: “Active”.
Same read-out and setting: next, `C[C@@H]1O[C@@H](O[C@H]2[C@H](O[C@H]3CC[C@]4(C)[C@H]5CC=C6[C@@H]7CC(C)(C)CC[C@]7(C(=O)O[C@@H]7O[C@H](CO[C@@H]8O[C@H](CO)[C@@H](O)[C@H](O)[C@H]8O)[C@@H](O)[C@H](O)[C@H]7O)CC[C@@]6(C)[C@]5(C)CC[C@H]4C3(C)C)OC[C@@H](O)[C@@H]2O)[C@H](O)[C@H](O[C@@H]2O[C@H](CO)[C@@H](O)[C@H](O)[C@H]2O)[C@H]1O`: “Active”; `C[C@@H]1O[C@@H](O[C@H]2[C@H](O[C@H]3CC[C@]4(C)[C@H]5CC=C6[C@@H]7CC(C)(C)CC[C@]7(C(=O)O[C@@H]7O[C@H](CO[C@@H]8O[C@H](CO)[C@@H](O)[C@H](O)[C@H]8O)[C@@H](O)[C@H](O)[C@H]7O)CC[C@@]6(C)[C@]5(C)CC[C@H]4C3(C)C)OC[C@@H](O)[C@@H]2O)[C@H](O)[C@H](O[C@@H]2OC[C@@H](O)[C@H](O)[C@H]2O)[C@H]1O`: “Active”.
